# Key:
# [1] = test system: Pseudomonas sp. ATCC 21438 (Facultative); assay: sec-alcohols to ketones by resting cell suspensions; assay type: cell-based
# Experimental: (§1) The pH of the nutrient medium was adjusted to 7.0 by the addition of acid or base and 50 ml. samples of the nutrient medium were charged into a plurality of 300 ml. shaker flasks. The shaker flasks were inoculated with an inoculating loop of cells from an agar plate containing homogeneous colonies of the microorganisms on the plate (the purity of the isolates was confirmed by microscopic examination). The isolates had been maintained on methanol (0.4% V/V) agar plates or on agar plates under an atmosphere of methane and air having a 1:1 V/V gas ratio which had been transferred every two weeks. For growth on methanol, the medium was supplemented with 0.4% methanol. For growth on methane, the gaseous phase of the inoculated flasks was replaced with a gas mixture comprised of methane and air having a ratio of 1:1 on a V/V basis. The inoculated flasks were sealed air-tight and were incubated on a rotary shaker of orbital radius 2.5 cm. at 250 rpm and at 30° C. for two days until turbidity in the medium had developed. The cells were harvested by centrifugation at 10,000×g. at 4° C. for 30 minutes. The cell pellet was washed twice with a 0.05 M phosphate buffer at a pH of 7.0 (containing 0.02 M MgCl2). The washed cells were then suspended in a 0.05 M phosphate buffer at pH 7.0.
# (§2) A 0.5 ml. sample of each washed cell suspension (2 mg. cells) was put into 10 ml. vials at 4° C. which were sealed with a rubber cap. The gaseous phase of the vials was removed with vacuum and then was replaced with a gas mixture of the substrate reactant (i.e., alkane or secondary alcohol) and oxygen at a 1:1 V/V ratio. (In the case of a liquid substrate, i.e., secondary alcohol, 10 μl of the substrate was put in the 10 ml. vials). […] Samples of product (1-3 μl) were withdrawn periodically with a microsyringe and the products were analyzed by gas chromatography (ionization flame detector column).
# (§3) The procedure in Example 1 was repeated except that a plurality of methanol-utilizing methylotrophic microorganisms were each aerobically grown in a methanol-containing nutrient medium instead of a methane-containing medium. The nutrients in the medium were the same as indicated in Example 1 except that 0.4% V/V methanol was used as the alcohol dehydrogenase inducer and as the major carbon and energy source for growth. The cells were harvested and washed as described in Example 1. The resting microbial cells of the induced methanol-grown methanol-utilizing methylotrophic microorganisms were then contacted with C3 -C6 secondary alcohols in a buffered solution by the procedure of Example 1.
# (§4) The procedure in Example 1 was repeated except that the methylotrophic microorganisms were each aerobically grown in an alcohol dehydrogenase-inducing growth medium containing methylamine or methyl formate as the alcohol dehydrogenase enzyme inducer and growth substrate instead of methane. The nutrients in the medium were the same as indicated in Example 1 except that 0.4% V/V of the alcohol dehydrogenase-inducer growth substrate was used as the major carbon and energy source. The cells were harvested and washed as described in Example 1. The resting microbial cells were then contacted with C3 -C6 secondary alcohols in a buffered solution by the conversion procedure of Example 1.
# [2] = test system: Methanomonas methylovora ATCC 21852 (Obligate); assay: as above; assay type: cell-based
# Experimental: as §1, §2, §3, §4
# [3] = test system: cell extracts (NAD+-dependent secondary alcohol dehydrogenase); assay: sec-alcohols to methyl ketones by cell extracts of yeasts, gas chromatography; assay type: biochemical, Hansenula polymorpha ATCC 26,012; details: grown on methanol
# [4] = test system: Kloeckera sp. Strain A2 (NRRLY-11,420); assay: sec-alcohols to ketones by cell suspensions of yeasts; assay type: cell-based
# [5] = test system: cell extracts (NAD+-dependent secondary alcohol dehydrogenase); assay: sec-alcohols to methyl ketones by cell extracts of yeasts, gas chromatography; assay type: biochemical, Pichia sp. NRRL-Y-11,328; details: grown on methanol
# [6] = test system: Pichia sp. NRRL-Y-11328; assay: sec-alcohols to ketones by cell suspensions of yeasts; assay type: cell-based
# [7] = test system: purified secondary alcohol dehydrogenase; assay: substrate specificity, electron acceptor and stoichiometry of purified yeast SADH
# [8] = test system: purified secondary alcohol dehydrogenase (SADH); assay: substrate specificity and Michaelis constants of purified SADH; assay type: biochemical, Pseudomonas sp. ATCC 21439
# [9] = test system: cell extracts (NAD+-dependent secondary alcohol dehydrogenase); assay: sec-alcohols to methyl ketones by cell extracts of yeasts, gas chromatography; assay type: biochemical, Torulopsis sp. strain A1 NRRL-Y-11,419; details: grown on methanol
# [10] = test system: secondary alcohol dehydrogenase (SADH), cell-free soluble extract; assay: oxidation of sec-alcohols by cell-free soluble extracts; assay type: biochemical, Methylobacterium organophilum CRL 26 (NRRL B-11,222); details: soluble crude extract; grown on methanol
# Experimental: (§5) To prepare the cell-free secondary alcohol dehydrogenase (SADH) system, the washed cells were disrupted with a Wave Energy Ultrasonic Oscillator, Model W201 (Wave Energy System, Inc., Newtown, Pa.) and centrifuged at 20,000×g. for 30 minutes. […] The enzyme activity was measured with a fluorescence spectrophotometer (Perkin Elmer, Model MPF 44A) by following the formation of reduced NAD (EX 340 nm, Em 460 nm). The formation of reduced NAD was also followed with an absorption spectrophotometer at 340 nm. The assay system (3 ml.) contained: potassium phosphate buffer pH 7.0; 150 μmol.; NAD 1 μmol.; a given amount of enzyme preparation; and secondary alcohol 10 μmol. The reaction was started by the addition of substrate. One unit of enzyme activity represents the reduction of one μmole NAD per minute. Protein concentrations were determined by the Lowry method (J. Biol. Chem., 193: 255-275 (1951)).
# (§6) The experimental procedure for the tests reported in Table VIII were as follows: 1 mg protein of crude extract was added into a 0.5 ml. 0.05 M phosphate buffer (pH 7.0) in a 10-ml. vial. […] The reaction mixture was incubated at 30° C. on a water bath. A 3 μl sample was removed with a syringe at 15 min. of incubation and was assayed with g.l.c. Catalytic activity was also assayed by fluorescence spectrophotometry.
# [11] = test system: secondary alcohol dehydrogenase (SADH), cell-free soluble extract; assay: as above; assay type: biochemical, Pseudomonas sp. CRL 75 (ATCC 21,439); details: soluble crude extract; grown on methanol
# Experimental: as §5, §6
structure (smiles),measurement,setting,value
"CC(C)O [2-Propanol, 2-propanol]","Conversion Rates, sec-alcohol to corresponding ketone",[1]; methanol-grown cells,0.45 μmoles/hr/mg protein
same,"Conversion Rates, sec-alcohol to corresponding ketone",[1]; methyl formate-grown cells,0.52 μmoles/hr/mg protein
same,"Conversion Rates, sec-alcohol to corresponding ketone",[1]; methylamine-grown cells,1.0 μmoles/hr/mg protein
same,"Conversion Rates, sec-alcohol to corresponding ketone",[2]; methanol-grown cells,0.28 μmoles/hr/mg protein
same,"Conversion Rates, sec-alcohol to corresponding ketone",[2]; methyl formate-grown cells,0.62 μmoles/hr/mg protein
same,"Conversion Rates, sec-alcohol to corresponding ketone",[2]; methylamine-grown cells,0.82 μmoles/hr/mg protein
same,"Conversion Rate, sec-alcohol to methyl ketone",[3],4.8 μmoles/hr/mg Protein
same,"Conversion Rate, sec-alcohol to corresponding ketone",[4]; Growth Substrate Ethanol,4.5 μmoles/hr/mg of protein
same,"Conversion Rate, sec-alcohol to corresponding ketone",[4]; Growth Substrate Methanol,4.8 μmoles/hr/mg of protein
same,"Conversion Rate, sec-alcohol to corresponding ketone",[4]; Growth Substrate Methylamine,4.0 μmoles/hr/mg of protein
same,"Conversion Rate, sec-alcohol to corresponding ketone",[4]; Growth Substrate Methylformate,4.9 μmoles/hr/mg of protein
same,"Conversion Rate, sec-alcohol to corresponding ketone",[4]; Growth Substrate Propylamine,4.0 μmoles/hr/mg of protein
same,"Conversion Rate, sec-alcohol to methyl ketone",[5],5.5 μmoles/hr/mg Protein
same,"Conversion Rate, sec-alcohol to corresponding ketone",[6]; Growth Substrate Ethanol,4.5 μmoles/hr/mg of protein
same,"Conversion Rate, sec-alcohol to corresponding ketone",[6]; Growth Substrate Methanol,5.2 μmoles/hr/mg of protein
same,"Conversion Rate, sec-alcohol to corresponding ketone",[6]; Growth Substrate Methylamine,4.2 μmoles/hr/mg of protein
same,"Conversion Rate, sec-alcohol to corresponding ketone",[6]; Growth Substrate Methylformate,4.9 μmoles/hr/mg of protein
same,"Conversion Rate, sec-alcohol to corresponding ketone",[6]; Growth Substrate Propylamine,3.2 μmoles/hr/mg of protein
same,oxidation by the purified yeast secondary alcohol dehydrogenase,[7]; examined spectrophotometrically,catalyzed the oxidation
same,Product Formed,"[7]; stoichiometry, Acetone from Isopropanol, 2-Butanone from 2-Butanol, gas chromatography",5.5 µmol
same,oxidation by purified SADH,[8],highest
same,"Conversion Rate, sec-alcohol to methyl ketone",[9],4.5 μmoles/hr/mg Protein
same,"Oxidation Rate, sec-alcohol to corresponding ketone",[10],2.1 nmole/min/mg protein
same,"Oxidation Rate, sec-alcohol to corresponding ketone",[11],21.2 nmole/min/mg protein

# From patent US4250259A, “Microbiological production of ketones from C3 -C6 secondary alcohols” (priority 1979, dated 1981)
